Assay results reported in patent publication US12502434B2, “Compound comprising EZH2 inhibitor and E3 ligase binder and pharmaceutical composition for preventing or treating EZH2-associated disease comprising same as active ingredient” (DAEGU-GYEONGBUK MEDICAL INNOVATION FOUNDATION, priority 2019, dated 2025).
Where two headings read alike, the source gives them in different places.

Molecular target: T1, EZH2 protein in LS174T cells (Homo sapiens, UniProt Q15910)
T1 construct: endogenous in cells; host or cells: LS174T
T1 sequence (Q15910 whole entry): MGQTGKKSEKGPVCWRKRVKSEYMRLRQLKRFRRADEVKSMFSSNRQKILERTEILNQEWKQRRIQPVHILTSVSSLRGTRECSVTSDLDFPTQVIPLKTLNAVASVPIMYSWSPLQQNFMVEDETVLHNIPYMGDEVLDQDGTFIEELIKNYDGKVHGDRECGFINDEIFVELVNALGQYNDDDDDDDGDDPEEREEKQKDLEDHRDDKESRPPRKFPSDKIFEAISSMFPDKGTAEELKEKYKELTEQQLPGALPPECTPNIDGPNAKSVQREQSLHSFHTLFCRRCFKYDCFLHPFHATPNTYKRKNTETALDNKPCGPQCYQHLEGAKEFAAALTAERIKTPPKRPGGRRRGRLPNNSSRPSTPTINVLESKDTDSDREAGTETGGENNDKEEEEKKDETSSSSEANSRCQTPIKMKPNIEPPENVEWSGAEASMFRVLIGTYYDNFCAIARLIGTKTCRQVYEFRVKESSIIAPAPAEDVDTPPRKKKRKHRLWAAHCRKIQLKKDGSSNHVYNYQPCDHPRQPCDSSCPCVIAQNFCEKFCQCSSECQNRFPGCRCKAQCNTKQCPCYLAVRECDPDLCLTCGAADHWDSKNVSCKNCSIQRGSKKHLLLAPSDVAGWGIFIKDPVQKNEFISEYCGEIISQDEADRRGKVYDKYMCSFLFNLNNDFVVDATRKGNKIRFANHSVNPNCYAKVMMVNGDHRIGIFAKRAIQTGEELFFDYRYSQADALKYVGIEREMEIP
T1 sequence (O75530 whole entry partner): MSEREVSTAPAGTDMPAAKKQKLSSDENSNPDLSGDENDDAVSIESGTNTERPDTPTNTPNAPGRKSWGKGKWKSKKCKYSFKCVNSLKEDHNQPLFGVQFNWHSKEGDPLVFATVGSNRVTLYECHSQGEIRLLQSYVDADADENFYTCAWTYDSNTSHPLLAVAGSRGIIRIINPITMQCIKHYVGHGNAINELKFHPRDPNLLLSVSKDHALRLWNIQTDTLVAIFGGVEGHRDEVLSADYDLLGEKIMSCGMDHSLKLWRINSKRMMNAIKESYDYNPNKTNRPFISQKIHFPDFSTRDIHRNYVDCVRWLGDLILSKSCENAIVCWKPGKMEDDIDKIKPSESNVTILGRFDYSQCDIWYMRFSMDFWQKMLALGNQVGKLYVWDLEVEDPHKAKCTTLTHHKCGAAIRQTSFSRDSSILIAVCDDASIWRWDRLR
T1 sequence (Q15022 whole entry partner): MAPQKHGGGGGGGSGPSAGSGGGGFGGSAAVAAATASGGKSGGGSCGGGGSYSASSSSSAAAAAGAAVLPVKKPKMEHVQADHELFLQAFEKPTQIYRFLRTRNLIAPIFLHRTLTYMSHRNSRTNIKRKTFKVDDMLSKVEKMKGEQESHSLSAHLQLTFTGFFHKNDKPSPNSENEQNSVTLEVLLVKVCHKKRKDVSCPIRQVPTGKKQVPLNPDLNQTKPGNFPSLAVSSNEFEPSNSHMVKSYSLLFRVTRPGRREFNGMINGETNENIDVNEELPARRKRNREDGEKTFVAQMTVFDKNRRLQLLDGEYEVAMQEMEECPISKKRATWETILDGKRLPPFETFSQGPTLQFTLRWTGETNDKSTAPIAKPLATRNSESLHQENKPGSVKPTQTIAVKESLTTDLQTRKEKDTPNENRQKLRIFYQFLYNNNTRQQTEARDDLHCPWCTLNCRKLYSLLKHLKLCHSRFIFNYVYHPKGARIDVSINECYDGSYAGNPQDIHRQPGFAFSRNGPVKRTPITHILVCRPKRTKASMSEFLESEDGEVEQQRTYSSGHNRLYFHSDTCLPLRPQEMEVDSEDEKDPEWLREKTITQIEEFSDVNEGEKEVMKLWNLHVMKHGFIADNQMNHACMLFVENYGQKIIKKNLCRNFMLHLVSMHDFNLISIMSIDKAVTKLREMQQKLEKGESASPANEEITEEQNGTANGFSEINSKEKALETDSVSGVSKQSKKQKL
Test: Proteolytic effect in colorectal cancer cells (Western blotting)
Type: cell-based
Method: After 72 hours of the treatment, the cells were collected and lysed using RIPA buffer (50 mM Tris, pH 7.5, 150 mM NaCl, 1% Triton X-100, 0.1% SDS, […], 0.5% deoxycholate, and protease inhibitor cocktail), followed by sonication (30 sec on/30 sec off, 5 cycles) to prepare a cell lysate.

[1] = EZH2 protein, LS174T cells, 1 μM, 72 hours
[2] = EZH2 protein, LS174T cells, 1 uM, 72 hours, Western blotting

Grade (percent value of the protein degradation when treated with 1 μM) [1]	%, degradation at 1 uM [2] [%]	EZH2 proteolytic effect by Western blotting (figure, in words) (FIGS. 1 to 5)	effect of degrading EZH2 protein when treated to colorectal cancer cells (in words) (LS174T cells)	Compound	%, degradation at 1 uM [%]	Grade (percent value of the protein degradation when treated with 1 μM)
C (25-50%)	31.67	–	–	CCN(c1cc(-c2ccc(CN3CCN(C(=O)c4cn(CCCCCNc5cccc6c5C(=O)N(C5CCC(=O)NC5=O)C6=O)nn4)CC3)cc2)cc(C(=O)NCc2c(C)cc(C)[nH]c2=O)c1C)C1CCOCC1 (stereo not drawn) [Example 32, N-((4,6-dimethyl-2-oxo-1,2-dihydropyridine-3-yl)methyl)-4′-((4-(1-(5-((2-(2,6-dioxopiperidine-3-yl)-1,3-dioxoisoindoline-4-yl)amino)pentyl)-1H-1,2,3-triazole-4-carbonyl)piperazine-1-yl)methyl)-5-(ethyl(tetrahydro-2H-pyran-4-yl)amino)-4-methyl-[1,1′-biphenyl]-3-carboxamide]	–	–
A (>75%)	80.85	confirming the EZH2 proteolytic effect	excellent effects	CCN(c1cc(-c2ccc(CN3CCN(CC(=O)N4CCC5(CCN(CCCCNc6cccc7c6C(=O)N(C6CCC(=O)NC6=O)C7=O)CC5)CC4)CC3)cc2)cc(C(=O)NCc2c(C)cc(C)[nH]c2=O)c1C)C1CCOCC1 (stereo not drawn) [Example 33, N-((4,6-dimethyl-2-oxo-1,2-dihydropyridine-3-yl)methyl)-4′-((4-(2-(9-(4-((2-(2,6-dioxopiperidine-3-yl)-1,3-dioxoisoindoline-4-yl)amino)butyl)-3,9-diazaspiro[5.5]undecane-3-yl)-2-oxoethyl)piperazine-1-yl)methyl)-5-(ethyl(tetrahydro-2H-pyran-4-yl)amino)-4-methyl-[1,1′-biphenyl]-3-carboxamide]	–	–
D (<25%)	0	–	–	CCN(c1cc(-c2ccc(CN3CCN(CC(=O)N4CCC5(CCN(CCCCNc6cccc7c6C(=O)N(C6CCC(=O)NC6=O)C7=O)C5)C4)CC3)cc2)cc(C(=O)NCc2c(C)cc(C)[nH]c2=O)c1C)C1CCOCC1 (stereo not drawn) [Example 34, N-((4,6-dimethyl-2-oxo-1,2-dihydropyridine-3-yl)methyl)-4′-((4-(2-(7-(4-((2-(2,6-dioxopiperidine-3-yl)-1,3-dioxoisoindoline-4-yl)amino)butyl)-2,7-diazaspiro[4.4]nonane-2-yl)-2-oxoethyl)piperazine-1-yl)methyl)-5-(ethyl(tetrahydro-2H-pyran-4-yl)amino)-4-methyl-[1,1′-biphenyl]-3-carboxamide]	–	–
D (<25%)	0	–	–	CCN(c1cc(-c2ccc(CN3CCN(CC(=O)N4CC5(CN(CCCCNc6cccc7c6C(=O)N(C6CCC(=O)NC6=O)C7=O)C5)C4)CC3)cc2)cc(C(=O)NCc2c(C)cc(C)[nH]c2=O)c1C)C1CCOCC1 (stereo not drawn) [Example 35, N-((4,6-dimethyl-2-oxo-1,2-dihydropyridine-3-yl)methyl)-4′-((4-(2-(6-(4-((2-(2,6-dioxopiperidine-3-yl)-1,3-dioxoisoindoline-4-yl)amino)butyl)-2,6-diazaspiro[3.3]heptane-2-yl)-2-oxoethyl)piperazine-1-yl)methyl)-5-(ethyl(tetrahydro-2H-pyran-4-yl)amino)-4-methyl-[1,1′-biphenyl]-3-carboxamide]	–	–
D (<25%)	0	–	–	CCN(c1cc(-c2ccc(CN3CCN(CC(=O)N4CC5(CN(CCNc6cccc7c6C(=O)N(C6CCC(=O)NC6=O)C7=O)C5)C4)CC3)cc2)cc(C(=O)NCc2c(C)cc(C)[nH]c2=O)c1C)C1CCOCC1 (stereo not drawn) [Example 36, N-((4,6-dimethyl-2-oxo-1,2-dihydropyridine-3-yl)methyl)-4′-((4-(2-(6-(2-((2-(2,6-dioxopiperidine-3-yl)-1,3-dioxoisoindoline-4-yl)amino)ethyl)-2,6-diazaspiro[3.3]heptane-2-yl)-2-oxoethyl)piperazine-1-yl)methyl)-5-(ethyl(tetrahydro-2H-pyran-4-yl)amino)-4-methyl-[1,1′-biphenyl]-3-carboxamide]	–	–
D (<25%)	9.97	–	–	CCN(c1cc(-c2ccc(CN3CCN(CC(=O)NCCCCCCN[C@H](C(=O)N4C[C@H](O)C[C@H]4C(=O)NCc4ccc(-c5scnc5C)cc4)C(C)(C)C)CC3)cc2)cc(C(=O)NCc2c(C)cc(C)[nH]c2=O)c1C)C1CCOCC1 [Example 38, (2S,4R)-1-((S)-2-((6-(2-(4-((3′-(((4,6-dimethyl-2-oxo-1,2-dihydropyridine-3-yl)methyl)carbamoyl)-5′-(ethyl(tetrahydro-2H-pyran-4-yl)amino)-4′-methyl-[1,1′-biphenyl]-4-yl)methyl)piperazine-1-yl)acetamido)hexyl)amino)-3,3-dimethylbutanoyl)-4-hydroxy-N-(4-(4-methylthiazole-5-yl)benzyl)pyrrolidine-2-carboxamide]	–	–
D (<25%)	0	–	–	CCN(c1cc(-c2ccc(CN3CCN(CC(=O)NCCCOCCN[C@H](C(=O)N4C[C@H](O)C[C@H]4C(=O)NCc4ccc(-c5scnc5C)cc4)C(C)(C)C)CC3)cc2)cc(C(=O)NCc2c(C)cc(C)[nH]c2=O)c1C)C1CCOCC1 [Example 39, (2S,4R)-1-((S)-2-((2-(3-(2-(4-((3′-(((4,6-dimethyl-2-oxo-1,2-dihydropyridine-3-yl)methyl)carbamoyl)-5′-(ethyl(tetrahydro-2H-pyran-4-yl)amino)-4′-methyl-[1,1′-biphenyl]-4-yl)methyl)piperazine-1-yl)acetamido)propoxy)ethyl)amino)-3,3-dimethylbutanoyl)-4-hydroxy-N-(4-(4-methylthiazole-5-yl)benzyl)pyrrolidine-2-carboxamide]	–	–
D (<25%)	0	–	–	CCN(c1cc(-c2ccc(CN3CCN(CC(=O)NCCOCCCN[C@H](C(=O)N4C[C@H](O)C[C@H]4C(=O)NCc4ccc(-c5scnc5C)cc4)C(C)(C)C)CC3)cc2)cc(C(=O)NCc2c(C)cc(C)[nH]c2=O)c1C)C1CCOCC1 [Example 40, (2S,4R)-1-((S)-2-((3-(2-(2-(4-((3′-(((4,6-dimethyl-2-oxo-1,2-dihydropyridine-3-yl)methyl)carbamoyl)-5′-(ethyl(tetrahydro-2H-pyran-4-yl)amino)-4′-methyl-[1,1′-biphenyl]-4-yl)methyl)piperazine-1-yl)acetamido)ethoxy)propyl)amino)-3,3-dimethylbutanoyl)-4-hydroxy-N-(4-(4-methylthiazole-5-yl)benzyl)pyrrolidine-2-carboxamide]	–	–
D (<25%)	8.36	–	–	CCN(c1cc(-c2ccc(CN3CCN(CC(=O)NCCCCCC(=O)N[C@H](C(=O)N4C[C@H](O)C[C@H]4C(=O)NCc4ccc(-c5scnc5C)cc4)C(C)(C)C)CC3)cc2)cc(C(=O)NCc2c(C)cc(C)[nH]c2=O)c1C)C1CCOCC1 [Example 41, (2S,4R)-1-((S)-2-(6-(2-(4-((3′-(((4,6-dimethyl-2-oxo-1,2-dihydropyridine-3-yl)methyl)carbamoyl)-5′-(ethyl(tetrahydro-2H-pyran-4-yl)amino)-4′-methyl-[1,1′-biphenyl]-4-yl)methyl)piperazine-1-yl)acetamido)hexanamido)-3,3-dimethylbutanoyl)-4-hydroxy-N-(4-(4-methylthiazole-5-yl)benzyl)pyrrolidine-2-carboxamide]	–	–
–	–	–	–	CCN(c1cc(-c2ccc(CN3CCN(CC(=O)NCCCOCCCOCC(=O)N[C@H](C(=O)N4C[C@H](O)C[C@H]4C(=O)NCc4ccc(-c5scnc5C)cc4)C(C)(C)C)CC3)cc2)cc(C(=O)NCc2c(C)cc(C)[nH]c2=O)c1C)C1CCOCC1 [Example 42, (2S,4R)-1-((S)-2-(tert-butyl)-16-(4-((3′-(((4,6-dimethyl-2-oxo-1,2-dihydropyridine-3-yl)methyl)carbamoyl)-5′-(ethyl(tetrahydro-2H-pyran-4-yl)amino)-4′-methyl-[1,1′-biphenyl]-4-yl)methyl)piperazine-1-yl)-4,15-dioxo-6,10-dioxa-3,14-diazahexadecanoyl)-4-hydroxy-N-(4-(4-methylthiazole-5-yl)benzyl)pyrrolidine-2-carboxamide]	0	D (key: A: >75%; B: 50-75%; C: 25-50%; D: <25%)
B (50-75%)	67.12	–	–	CCN(c1cc(-c2ccc(CN3CCN(CC(=O)NCCCCCOCCCOCCC(=O)N[C@H](C(=O)N4C[C@H](O)C[C@H]4C(=O)NCc4ccc(-c5scnc5C)cc4)C(C)(C)C)CC3)cc2)cc(C(=O)NCc2c(C)cc(C)[nH]c2=O)c1C)C1CCOCC1 [Example 43, (2S,4R)-1-((S)-2-(tert-butyl)-19-(4-((3′-(((4,6-dimethyl-2-oxo-1,2-dihydropyridine-3-yl)methyl)carbamoyl)-5′-(ethyl(tetrahydro-2H-pyran-4-yl)amino)-4′-methyl-[1,1′-biphenyl]-4-yl)methyl)piperazine-1-yl)-4,18-dioxo-7,11-dioxa-3,17-diazanonadecanoyl)-4-hydroxy-N-(4-(4-methylthiazole-5-yl)benzyl)pyrrolidine-2-carboxamide]	–	–
A (>75%)	76.02	–	excellent effects	CCN(c1cc(-c2ccc(CN3CCN(CC(=O)N4CCC5(CCN(CCCC(=O)N[C@H](C(=O)N6C[C@H](O)C[C@H]6C(=O)NCc6ccc(-c7scnc7C)cc6)C(C)(C)C)CC5)CC4)CC3)cc2)cc(C(=O)NCc2c(C)cc(C)[nH]c2=O)c1C)C1CCOCC1 [Example 45, (2S,4R)-1-((S)-2-(4-(9-(2-(4-((3′-(((4,6-dimethyl-2-oxo-1,2-dihydropyridine-3-yl)methyl)carbamoyl)-5′-(ethyl(tetrahydro-2H-pyran-4-yl)amino)-4′-methyl-[1,1′-biphenyl]-4-yl)methyl)piperazine-1-yl)acetyl)-3,9-diazaspiro[5.5]undecane-3-yl)butanamido)-3,3-dimethylbutanoyl)-4-hydroxy-N-(4-(4-methylthiazole-5-yl)benzyl)pyrrolidine-2-carboxamide]	–	–
